We go through 1 molecule from patent EP0315019A2, “Fluoromethoxyphenyl-dihydropyridines, process for their preparation and their use in drugs” (BAYER AG, priority 1987, dated 1989).

This test relates to isolierter Meerschweinchen-Herzvorhöfe. The test can be described thus: Effect on contraction amplitude of isolated guinea pig heart atria. Conditions: Wirkstoffkonzentration 10⁻³ g/l, read-out: Substanzeffekte auf die Kontraktionsamplitude, Änderung in %.

`CCCCCCCCCCOC(=O)C1=C(C)NC(C)=C([N+](=O)[O-])C1c1ccccc1OC(F)F` (racemic) [Beispiel 1, 4-(2-Difluormethoxyphenyl)-1,4-dihydro-2,6-dimethyl-3-nitro-pyridin-5-carbonsäure-decylester]: the activation at 1 µg/mL is 45%.
